Results published in ChEMBL document CHEMBL1124973 (J Med Chem, 1990).

How the values were obtained:
[1] = target: T1, Muscarinic acetylcholine receptor (Rattus norvegicus) (UniProt P08482+P08483+P08485+P08911+P10980)
Description: In vitro binding affinity against muscarinic acetylcholine receptor from rat cortical homogenates using [3H]N-methylscopolamine as radioligand

[2] = target: T1, Muscarinic acetylcholine receptor (Rattus norvegicus); remark: listed apart in the source
Description: In vitro binding affinity against muscarinic acetylcholine receptor from rat cortical homogenates using [3H]oxotremorine-M radioligand

[3] = pKa value was measured; assay type: physicochemical
[4] = target: T1, Muscarinic acetylcholine receptor (Rattus norvegicus); experiment: The selectivity ratio of Kapp of NMS/OXO -M; assay type: protein assay

Compound	K app [1] [µM]	K app [2] [µM]	pKa [3]	Ratio [4]
Cc1noc(C2CCN(C)C2)n1 (stereo not given)	27	0.024	–	–
Cc1noc(C2CNCCN2)n1 (stereo not given)	> 50	0.64	7.1	–
CN1CCN(C)C(c2nc(N)no2)C1 (stereo not given)	> 50	> 14	6	–
Nc1noc(C2CNCCN2)n1 (stereo not given)	> 50	0.45	7.1	> 100
Cc1noc(C2CC3CCC2NC3)n1 (stereo in doubt; 22a)	1.1	0.0032	–	–
Nc1noc(C2CN3CCCC2C3)n1 (stereo in doubt; 17b)	1.8	0.003	–	–
Cc1noc(C2=CCCNC2)n1	2.4	0.0016	–	–
Cc1noc(C2CN3CCC2C3)n1 (stereo in doubt; 15b)	3.6	0.0021	–	–
Cc1noc(CN(C)C)n1	> 50	3.3	5.6	–
Nc1noc(C2CN3CCC2C3)n1 (stereo in doubt; 16b)	1.6	0.0015	–	–
Cc1noc(C2CC3CCC2N(C)C3)n1 (stereo in doubt; 23b)	29	0.95	–	–
Nc1noc(C2CN3CCCC2C3)n1 (stereo in doubt; 17a)	0.77	0.00067	–	–
Cc1noc(C2CN3CCN2CC3)n1 (stereo not given)	36	0.44	6	–
CN1CCC(c2nc(N)no2)C1 (stereo not given)	17	0.01	–	–
C[N+](C)(C)CCOC(N)=O	22	0.0049	–	–
Nc1noc(C2CCNC2)n1 (stereo not given)	21	0.04	–	–

Compound	K app [1] [µM]	K app [2] [µM]	pKa [3]	Ratio [4]
Nc1noc(C2CN3CCC2CC3)n1 (stereo not given)	0.6	0.00047	–	–
CN1CCCC(c2nc(N)no2)C1 (stereo not given)	53	0.24	–	–
Nc1noc(C2CN3CCC2C3)n1 (stereo in doubt; 16a)	0.031	< 4.3e-05	–	–
Cc1noc(C[N+](C)(C)C)n1	3.6	0.0014	–	–
CN1CCC=C(c2nc(N)no2)C1	2.8	0.0026	–	–
Cc1noc(C2CN3CCC2C3)n1 (stereo in doubt; 15a)	0.1	9e-05	–	–
Cc1noc(C2CN3CCC2CC3)n1 (stereo not given)	0.44	0.00096	–	–
Cc1noc(C2CCCCN(C)C2)n1 (stereo not given)	18	0.73	–	–
Nc1noc(C2=CCCNC2)n1	3.3	0.0017	–	–
Cc1noc(C2CC3CCC2NC3)n1 (stereo in doubt; 22b)	5.2	0.0025	–	–
Cc1noc(C2CN(C)CCN2)n1 (stereo not given)	> 50	7.6	6.2	> 6.6
Cc1noc(C2CCCN(C)C2)n1 (stereo not given)	54	0.43	–	–
CN1CCNC(c2nc(N)no2)C1 (stereo not given)	> 50	9.1	6.2	> 5.5
Cc1noc(C2CC3CCC2N(C)C3)n1 (stereo in doubt; 23a)	8.9	0.3	–	–
Nc1noc(C2CN3CCN2CC3)n1 (stereo not given)	> 50	0.13	6.3	–
Cc1noc(C2=CCCN(C)C2)n1	2.1	0.0054	–	–
